Legend:
[1] = test system: gastrointestinal stromal tumors (GIST); conditions: third line therapy; cited from earlier work
[2] = target: T1, BAF3 FL KIT EX11DEL/V654A (Homo sapiens, UniProt P10721, V654A, cells depend on it, form not given); experiment: c-Kit assay: Ba/F3 KIT mutant viability (Cell Titer-Glo, 72 hours); type: cell-based; conditions: viability after 72 hours
T1 construct: "BAF3 FL KIT EX11DEL/ V654A"
Method: (§1) KIT cDNAs were synthesized by GenScript and cloned into the pLVX-IRES-Puro vector (Clontech). Viral particles were produced by transfecting pLVX-IRES-puro vectors containing KIT mutant genes into HEK293 cells (Invitrogen) using the Trans-Lentiviral ORF Packaging Kit (Thermo Scientific). 48 hours post-transfection, virus-containing supernatants were harvested and incubated for another 48-72 hours with parental Ba/F3 cells (DSMZ) in the presence of 10 ng/mL […] (R&D Systems). Transduced Ba/F3 cells were then selected by IL-3 withdrawal and puromycin (0.5-1 μg/mL, Invitrogen).
(§2) Cell lines (i.e., EX11DEL, EX11DEL/D816H, EX11DEL/T670I, and EX11DEL/V654A) were plated into 384 well plates using RPMI 1640 supplemented with 10% FBS at densities that produced linear growth and incubated at 37° C. in 5% (v/v) CO2. Cells were treated with eight concentrations of compound over a 4-fold dilution (10 μM to 0.61 nM) and viability was assessed using Cell Titer-Glo assay (Promega) after 72 hours. Data were plotted as percent viability relative to vehicle-treated cells. Dose-responses curves were generated and used to calculate IC50 values.

[3] = target: T2, BAF3 FL KIT EX11DEL/T6701 (Homo sapiens, UniProt P10721, T670I, cells depend on it, form not given); experiment: as above; type: cell-based; conditions: EX11DEL/T6701, viability after 72 hours
T2 construct: "BAF3 FL KIT EX11DEL/ T6701"
T2 sequence (P10721 with tags, fused parts or gaps DEL557-558/T670I, form open): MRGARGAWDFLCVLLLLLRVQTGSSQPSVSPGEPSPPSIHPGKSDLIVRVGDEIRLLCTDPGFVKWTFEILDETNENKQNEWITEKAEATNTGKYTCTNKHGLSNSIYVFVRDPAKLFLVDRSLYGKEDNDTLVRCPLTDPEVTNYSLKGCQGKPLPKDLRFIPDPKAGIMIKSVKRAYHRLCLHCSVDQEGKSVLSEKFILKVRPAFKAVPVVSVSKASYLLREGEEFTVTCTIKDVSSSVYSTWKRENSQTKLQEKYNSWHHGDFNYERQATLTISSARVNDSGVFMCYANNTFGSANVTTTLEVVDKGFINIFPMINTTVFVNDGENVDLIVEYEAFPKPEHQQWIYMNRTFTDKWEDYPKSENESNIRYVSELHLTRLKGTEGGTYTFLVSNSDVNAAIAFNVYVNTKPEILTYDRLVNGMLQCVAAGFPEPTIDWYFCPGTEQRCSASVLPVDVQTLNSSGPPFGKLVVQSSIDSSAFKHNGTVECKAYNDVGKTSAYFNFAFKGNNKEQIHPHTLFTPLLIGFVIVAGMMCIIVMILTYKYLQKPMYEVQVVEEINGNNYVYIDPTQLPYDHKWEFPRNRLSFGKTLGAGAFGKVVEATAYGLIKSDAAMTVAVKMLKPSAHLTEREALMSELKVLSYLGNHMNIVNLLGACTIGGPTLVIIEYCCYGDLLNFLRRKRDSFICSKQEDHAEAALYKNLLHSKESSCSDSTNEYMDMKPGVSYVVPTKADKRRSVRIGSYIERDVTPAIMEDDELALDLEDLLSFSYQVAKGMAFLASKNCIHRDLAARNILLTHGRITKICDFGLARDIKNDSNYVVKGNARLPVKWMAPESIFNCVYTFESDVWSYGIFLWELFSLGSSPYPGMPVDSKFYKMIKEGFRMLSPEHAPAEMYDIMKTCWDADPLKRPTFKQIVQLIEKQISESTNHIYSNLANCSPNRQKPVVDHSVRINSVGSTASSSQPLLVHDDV
Method: as §1, §2

[4] = target: T3, BAF3 FL KIT EX11DEL/D816H (Homo sapiens, UniProt P10721, D816H, cells depend on it, form not given); experiment: as above; type: cell-based; conditions: viability after 72 hours
T3 construct: "BAF3 FL KIT EX11DEL/ D816H"
T3 sequence (P10721 with tags, fused parts or gaps DEL557-558/D816H, form open): as the sequence (P10721 with tags, fused parts or gaps DEL557-558/T670I, form open) above, with I668T, D814H counted along it
Method: as §1, §2

[5] = target: T4, BAF3 FL KIT EX11DEL (Homo sapiens, UniProt P10721, cells depend on it, form not given); experiment: as above; type: cell-based; conditions: viability after 72 hours
T4 construct: "BAF3 FL KIT EX11DEL"
T4 sequence (P10721 with tags, fused parts or gaps DEL557-558): as the sequence (P10721 with tags, fused parts or gaps DEL557-558/T670I, form open) above, with I668T counted along it
Method: as §1, §2

T1 sequence (P10721 with tags, fused parts or gaps DEL557-558/V654A, form open): as the sequence (P10721 with tags, fused parts or gaps DEL557-558/T670I, form open) above, with V652A, I668T counted along it

| SMILES | ORR [1] [%] | median PFS [1] [months] | GI50 [2] [nM] | GI50 [3] [nM] | GI50 [4] [nM] | GI50 [5] [nM] |
| --- | --- | --- | --- | --- | --- | --- |
| CNC(=O)c1cc(Oc2ccc(NC(=O)Nc3ccc(Cl)c(C(F)(F)F)c3)c(F)c2)ccn1 [Regorafenib] | 4.5 | 4.8 | – | – | – | – |
| Cc1ccc(C(=O)Nc2cc(C(F)(F)F)ccn2)cc1C#Cc1ccc2c(c1)ncn2-c1ccc(N2CCN(C)CC2)cc1 [Compound I-15, 4-methyl-3-((1-(4-(4-methylpiperazin-1-yl)phenyl)-1H-benzo[d]imidazol-5-yl)ethynyl)-N-(4-(trifluoromethyl)pyridin-2-yl)benzamide] | – | – | 100 to 10000 | 100 to 10000 | 100 to 10000 | 50 to 100 |
| COCCn1cc(-n2cnc3cc(C#Cc4cc(C(=O)Nc5cc(C(F)(F)F)ccn5)ccc4C)ccc32)cn1 [Compound I-32, 3-((1-(1-(2-methoxyethyl)-1H-pyrazol-4-yl)-1H-benzo[d]imidazol-5-yl)ethynyl)-4-methyl-N-(4-(trifluoromethyl)pyridin-2-yl)benzamide] | – | – | 10 to 50 | < 10 | 10 to 50 | < 10 |
| Cc1ccc(C(=O)Nc2cc(C(F)(F)F)ccn2)cc1C#Cc1ccc2c(c1)ncn2C1CCN(C)CC1 [Compound I-20, 4-methyl-3-((1-(1-methylpiperidin-4-yl)-1H-benzo[d]imidazol-5-yl)ethynyl)-N-(4-(trifluoromethyl)pyridin-2-yl)benzamide] | – | – | 100 to 10000 | 100 to 10000 | 100 to 10000 | 10 to 50 |
| Cc1ccc(C(=O)Nc2ccc(C#N)c(C(F)(F)F)c2)cc1C#Cc1ccc2c(c1)ncn2-c1ccn(C)n1 [Compound I-37, N-(4-cyano-3-(trifluoromethyl)phenyl)-4-methyl-3-((1-(1-methyl-1H-pyrazol-3-yl)-1H-benzo[d]imidazol-5-yl)ethynyl)benzamide] | – | – | 50 to 100 | 10 to 50 | 10 to 50 | < 10 |
| Cc1ccc(NC(=O)c2cc(C(F)(F)F)ccn2)cc1C#Cc1ccc2c(c1)ncn2C [Compound I-45, N-(4-methyl-3-((1-methyl-1H-benzo[d]imidazol-5-yl)ethynyl)phenyl)-4-(trifluoromethyl)picolinamide] | – | – | 50 to 100 | 10 to 50 | 50 to 100 | 10 to 50 |
| Cc1ccc(C(=O)Nc2cc(C(F)(F)F)ccn2)cc1C#Cc1ccc2c(c1)ncn2-c1cnn(C2CCN(C)CC2)c1 [Compound I-27, 4-methyl-3-((1-(1-(1-methylpiperidin-4-yl)-1H-pyrazol-4-yl)-1H-benzo[d]imidazol-5-yl)ethynyl)-N-(4-(trifluoromethyl)pyridin-2-yl)benzamide] | – | – | 10 to 50 | 10 to 50 | 10 to 50 | < 10 |
| Cc1ccc(NC(=O)c2ccc(CN3CCN(C)CC3)c(C(F)(F)F)c2)cc1C#Cc1ccc2c(c1)ncn2C [Compound I-18, N-(4-methyl-3-((1-methyl-1H-benzo[d]imidazol-5-yl)ethynyl)phenyl)-4-((4-methylpiperazin-1-yl)methyl)-3-(trifluoromethyl)benzamide] | – | – | 100 to 10000 | 100 to 10000 | 100 to 10000 | 100 to 10000 |
| Cn1cc(-n2cnc3cc(C#Cc4cccc(C(=O)Nc5cc(C(F)(F)F)ccn5)c4)ccc32)cn1 [Compound I-50, 3-((1-(1-methyl-1H-pyrazol-4-yl)-1H-benzo[d]imidazol-5-yl)ethynyl)-N-(4-(trifluoromethyl)pyridin-2-yl)benzamide] | – | – | 50 to 100 | < 10 | 100 to 10000 | < 10 |
| Cc1ccc(C(=O)Nc2cc(C(F)(F)F)ccn2)cc1C#Cc1ccc2c(c1)ncn2-c1cccc(N2CCN(C)CC2)c1 [Compound I-14, 4-methyl-3-((1-(3-(4-methylpiperazin-1-yl)phenyl)-1H-benzo[d]imidazol-5-yl)ethynyl)-N-(4-(trifluoromethyl)pyridin-2-yl)benzamide] | – | – | 100 to 10000 | 100 to 10000 | 100 to 10000 | 50 to 100 |
| Cc1ccc(C(=O)Nc2cc(C(F)(F)F)ccn2)cc1C#Cc1ccc2[nH]cnc2c1 [Compound I-2, 3-((1H-benzo[d]imidazol-5-yl)ethynyl)-4-methyl-N-(4-(trifluoromethyl)pyridin-2-yl)benzamide] | – | – | 10 to 50 | 10 to 50 | 50 to 100 | < 10 |
| Cc1ccc(NC(=O)c2ccc(CN3CCN(C)CC3)c(C(F)(F)F)c2)cc1C#Cc1ccc2c(c1)ncn2-c1cnn(C)c1 [Compound I-46, N-(4-methyl-3-((1-(1-methyl-1H-pyrazol-4-yl)-1H-benzo[d]imidazol-5-yl)ethynyl)phenyl)-4-((4-methylpiperazin-1-yl)methyl)-3-(trifluoromethyl)benzamide] | – | – | 100 to 10000 | 50 to 100 | 100 to 10000 | 10 to 50 |
| Cc1ccc(NC(=O)c2ccc(CN3CCCC3)c(C(F)(F)F)c2)cc1C#Cc1ccc2c(c1)ncn2-c1cnn(C)c1 [Compound I-47, N-(4-methyl-3-((1-(1-methyl-1H-pyrazol-4-yl)-1H-benzo[d]imidazol-5-yl)ethynyl)phenyl)-4-(pyrrolidin-1-ylmethyl)-3-(trifluoromethyl)benzamide] | – | – | 100 to 10000 | 50 to 100 | 100 to 10000 | 10 to 50 |
| Cc1ccc(C(=O)Nc2cc(C(F)(F)F)ccn2)cc1C#Cc1ccc2c(c1)ncn2-c1cn(C2CCN(C)CC2)cn1 [Compound I-34, 4-methyl-3-((1-(1-(1-methylpiperidin-4-yl)-1H-imidazol-4-yl)-1H-benzo[d]imidazol-5-yl)ethynyl)-N-(4-(trifluoromethyl)pyridin-2-yl)benzamide] | – | – | 100 to 10000 | 10 to 50 | 100 to 10000 | < 10 |
| Cc1ccc(NC(=O)c2ccc(CN3CCOCC3)c(C(F)(F)F)c2)cc1C#Cc1ccc2c(c1)ncn2-c1cnn(C)c1 [Compound I-48, N-(4-methyl-3-((1-(1-methyl-1H-pyrazol-4-yl)-1H-benzo[d]imidazol-5-yl)ethynyl)phenyl)-4-(morpholinomethyl)-3-(trifluoromethyl)benzamide] | – | – | 50 to 100 | 10 to 50 | 50 to 100 | < 10 |
| Cc1ccc(C(=O)Nc2cc(C(F)(F)F)ccn2)cc1C#Cc1ccc2c(c1)ncn2-c1cnn(C2CCN(C=O)CC2)c1 [Compound I-25, 3-((1-(1-(1-formylpiperidin-4-yl)-1H-pyrazol-4-yl)-1H-benzo[d]imidazol-5-yl)ethynyl)-4-methyl-N-(4-(trifluoromethyl)pyridin-2-yl)benzamide] | – | – | 10 to 50 | < 10 | 10 to 50 | < 10 |
| Cc1ccc(C(=O)Nc2ccc(CN3CCCC3)c(C(F)(F)F)c2)cc1C#Cc1ccc2c(c1)ncn2C [Compound I-30, 4-methyl-3-((1-methyl-1H-benzo[d]imidazol-5-yl)ethynyl)-N-(4-(pyrrolidin-1-ylmethyl)-3-(trifluoromethyl)phenyl)benzamide] | – | – | 50 to 100 | 50 to 100 | 100 to 10000 | 10 to 50 |
| Cc1ccc(C(=O)Nc2cccc(C3CC3)c2)cc1C#Cc1ccc2c(c1)ncn2-c1cnn(C)c1 [Compound I-28, N-(3-cyclopropylphenyl)-4-methyl-3-((1-(1-methyl-1H-pyrazol-4-yl)-1H-benzo[d]imidazol-5-yl)ethynyl)benzamide] | – | – | 50 to 100 | 10 to 50 | 50 to 100 | 10 to 50 |
| COCCn1cnc2cc(C#Cc3cc(C(=O)Nc4cc(C(F)(F)F)ccn4)ccc3C)ccc21 [Compound I-4, 3-((1-(2-methoxyethyl)-1H-benzo[d]imidazol-5-yl)ethynyl)-4-methyl-N-(4-(trifluoromethyl)pyridin-2-yl)benzamide] | – | – | 50 to 100 | 50 to 100 | 100 to 10000 | < 10 |
